Earlier results in US8668905B2 (priority 2005, dated 2014).

System: drug-resistant SCLC

CC(=O)O[C@H]1C(=O)[C@@]2(C)[C@H]([C@H](OC(=O)c3ccccc3)[C@]3(O)C[C@H](OC(=O)[C@H](O)[C@@H](NC(=O)c4ccccc4)c4ccccc4)C(C)=C1C3(C)C)[C@]1(OC(C)=O)CO[C@@H]1C[C@@H]2O [Taxol, Paclitaxel]
life-threatening toxicity ((Smit, 1998)): 20 % of patients | median survival (drug-resistant SCLC patients (Smit, 1998)): 100 days
